Source: patent US10041047B2, “Compositions and methods for epithelial stem cell expansion and culture” (The Brigham and Women's Hospital, Inc., priority 2013, dated 2018)

How the values were obtained:
[1] = tested on: Lgr5+ stem/progenitor cells derived from the mouse inner ear; test: Culture of inner ear (cochlear) Lgr5-GFP epithelial cells in Matrigel; format: cell-based; conditions: single cochlear epithelial cells, 11 days (FIG. 13B)
Lgr5+ stem cells = test: Quantitative real-time PCR of mature intestinal epithelial cell markers and Lgr5, 6 day culture (FIG. 6D); format: cell-based, mouse
Protocol: FIGS. 6A-6D depict maintenance of Lgr5+ stem cell self-renewal by the combination of CHIR and VPA. Confocal images of Lysozyme (FIG. 6A), Ki67 (FIG. 6B) and EdU (FIG. 6C) staining of organoids cultured under the ENR condition (Upper panels) and colonies cultured in the ENR-CV condition (Lower panels) are shown. For EdU staining, cells were cultured with the thymidine analogue EdU (red) for 1 hour. In FIGS. 6B and 6C, only crypt domains contain Ki67 positive cells or incorporate EdU in the ENR condition (Upper panels) while Ki67 or EdU is present throughout the cell aggregates in the CV condition (Lower panels). FIG. 6D depicts quantitative real-time PCR analysis of relative mRNA expression of markers for mature intestinal epithelial cells cultured for 6 days under conditions as indicated (Intestinal Alkaline phosphatase [Alpi] for enterocytes, Mucin 2 [Muc2] for goblet cells, Chromogranin A [ChgA] for enteroendocrine cells, Lysozyme [Lyz] for Paneth cells, and Lgr5 for intestinal stem cells). ENR-CV(D40) indicates cells that were cultured in the CV condition for 40 days. Scale bars: 50 μm. In FIG. 6D, the series are, from left to right, Alpi, Muc2, ChgA, Lyz, and Lgr5.
As previously reported, cells in the ENR condition grew into organoids with crypt-villus structure containing all intestinal epithelial cell types, confirmed by staining of alkaline phosphatase (Alp) positive enterocytes, Mucin 2 (Muc2) positive goblet cells, Chromogranin A (ChgA) positive enteroendocrine cells, Lysozyme (Lyz) positive Paneth cells and Lgr5-GFP^+ stem cells. Lgr5^+ stem cells only reside at the tips of crypt (FIGS. 6A and 7A). […] In the CV condition, however, GFP^+ stem cells were present throughout the entire colony with minimal presence of Paneth cells (FIG. 6A) and without the presence of other cells types. Compared to ENR culture, Ki67 or EdU positive proliferating cells in the CV condition existed throughout the cell colony (FIGS. 6B and 6C). […] This expression pattern was maintained over multiple passages, and the Lgr5 expression level was maintained (FIG. 6D). […]

single Lgr5-GFP cells = test: Culture of FACS-sorted single Lgr5-GFP cells: colony formation, proliferation, GFP expression; format: cell-based; conditions: for GFP expression / cell proliferation: single GFP-high cells, 7 day culture with ENR
Protocol: Crypts and single Lgr5-GFP cells were isolated as previously described (Sato et al., 2009). Briefly, the proximal half of the small intestine was harvested, opened longitudinally, and washed with cold PBS to remove luminal content. The tissue was then cut into 2-4 mm pieces with scissors and further washed 5-10 times with cold PBS by pipetting up and down using a 10-ml pipette. Tissue fragments were incubated with 2 mM EDTA in PBS for 30 min on ice. After removal of EDTA, tissue fragments were washed with PBS to release crypts. Supernatant fractions enriched in crypts were collected, passed through a 70 μm cell strainer and centrifuged at 300 g for 5 minutes. The cell pellet was re-suspended with cell culture media without growth factors and centrifuged at 150 g to remove single cells. Crypts were then cultured or used for single cell isolation. To obtain single cells, crypts were incubated in culture medium for 45 minutes at 37° C. and triturated with a glass pipette. Dissociated cells were passed through 20 μm cell strainer, negative stained with propidium iodide and single viable GFP-high cells were sorted by flow cytometry (FACS Aria, BD) as previously described (Sato et al., 2009). […] Isolated crypts or single cells were cultured as previously described (Sato et al., 2009) with minimal modification. Briefly, crypts or single cells were entrapped in Matrigel and plated at the center of wells in a 24-well plate. After polymerization of Matrigel (growth factor reduced; BD Bioscience), 500 μl of culture medium (Advanced DMEM/F12 (Life Technologies)) was added containing growth factors including EGF (50 ng/ml, Life Technologies), Noggin (100 ng/ml, Peprotech) and R-spondin 1 (500 ng/ml, R&D) and small molecules including CHIR99021 (3 μM, Stemgent) and Valproic Acid (1 mM, Sigma-Aldrich). For comparison of different culture conditions, small molecules or growth factors were added to freshly isolated crypts immediately after plating in Matrigel to test the ability to minimize potential differentiation of the ISC within the crypts and thus sustain crypt cultures. Cell culture media was changed every other day. For single cell culture, cells were embedded in Matrigel containing Jagged-1 peptide (1 μM; AnaSpec) and Y-27632 (10 μM; Tocris) was added for the first 2 days. Cells were passaged either as cell colonies as previously described (Sato et al., 2009) or as single cells. For single cell passage, cell culture medium was removed and Accutase (Life Technologies) was added. After incubation at 37° C. for 10-20 minutes, cell colonies were dissociated into single cells by pipetting. Cells were then washed, embedded in fresh Matrigel and plated into 24-well plates. Cells cultured in the CV condition were passaged every 6 days at a 1:20 split ratio.
The Rho kinase inhibitor Y-27632, which inhibits anoikis of single stem cells (Watanabe et al., 2007), was added for the first two days as previously described (Sato et al., 2009).

[2] = tested on: human small intestinal crypts; test: Culture of human small intestinal crypts: LGR5 expression (RT-PCR) and cell number; format: cell-based; conditions: cell numbers at day 9 after seeding (FIG. 25A)
Description: Human small intestinal crypts were isolated from a resected normal small intestinal specimen and cultured as described in Example 1. The same cell culture solutions used in the culture of mouse small intestinal stem cells/crypts, which comprise a combination of CHIR99021 and VPA or Tubastatin A added to the ENR (EGF, Noggin, R-Spondin 1) condition, were compared to published cell culture solutions for human intestinal stem cells/crypts (Jung et al., 2011; Sato et al., 2011). RT-PCR was used to assess the maintenance of epithelial stem cells in the culture, specifically by determining the self-renewal or differentiation status. LGR5 was used as a stem cell marker and ALPI, MUC2, CHGA and LYZ were used as differentiation markers. Cell growth was assessed by counting the cell number in the cultures and by observing the morphology and size of colonies.

[3] = tested on: Notch pathway genes (Notch1, Hes1, Atoh1); test: Real-time RT-PCR of Notch pathway genes in cultured crypts; format: cell-based, mouse; conditions: VPA added to ENR or ENR-C for 24 hours
Protocol: Crypts were cultured in ENR-C condition with or without DAPT (D, 5 μM) and varying concentration of VPA (V, 0.25-4 mM) for 3 days. […] FIGS. 11B and 11C depict crypts cultured in the ENR (FIG. 11B) or ENR+CHIR (FIG. 11C) conditions for 4 days followed by addition of VPA at different concentrations for another 24 hours. The expression of Notch1, Hes1 and Atoh1 were analyzed by Real-time RT-PCR.
To investigate the effect of VPA on the activation of the Notch pathway, cells cultured in ENR or ENRC conditions were treated with VPA and analyzed for the expression of Notch pathway genes.

SMILES: Cc1cnc(-c2cnc(NCCNc3ccc(C#N)cn3)nc2-c2ccc(Cl)cc2Cl)[nH]1 [CHIR99021, 6-[[2-[[4-(2,4-Dichlorophenyl)-5-(5-methyl-1H-imidazol-2-yl)-2-pyrimidinyl]amino]ethyl]amino]-3-pyridinecarbonitrile]
- GFP expression [1]: not CHIR alone
- cell proliferation [1]: not CHIR alone
- colony-forming efficiency [1]: not CHIR alone
- Paneth cell differentiation (Lgr5+ stem cells): increased
- enterocyte differentiation (Lgr5+ stem cells): reduces
- increase of colony-forming efficiency (single Lgr5-GFP cells; CHIR added to ENR, single Lgr5-GFP+ cells): 20-50 fold
- GFP expression (single Lgr5-GFP cells): only moderately increased
- cell proliferation (single Lgr5-GFP cells): significantly increased cell proliferation

SMILES: CCCC(CCC)C(=O)O [Valproic Acid]
- proliferation of human small intestinal crypts (cell number) [2]: increased cell proliferation
- secretory differentiation (Lgr5+ stem cells): decreased
- GFP expression (single Lgr5-GFP cells): promoted GFP expression
- cell proliferation (single Lgr5-GFP cells): minimal pro-proliferative effect
- colony-forming efficiency (in words) (single Lgr5-GFP cells; single Lgr5-GFP+ cells, agent(s) added to ENR): only weakly increased
- expression of Hes1 [3]: moderately decreased
- expression of Notch1 [3]: moderately decreased
